Publication PMC5218480 (PLoS ONE, 2017)

Tested on: MV-4-11 cells
Assay: Gene expression microarray analysis (Affymetrix PrimeView) and GSEA
Format: cell-based, human
Design: RFU PODN (11730768_x_at) / Fold change /veh PODN (11730768_x_at) / RFU LINC00158 (11744669_a_at) / Fold change /veh LINC00158 (11744669_a_at) / RFU DUSP10 (11751237_a_at) / Fold change /veh DUSP10 (11751237_a_at) / RFU ID3 (11757404_x_at) / Fold change /veh ID3 (11757404_x_at) / RFU PLEKHG5 (11737974_s_at) / Fold change /veh PLEKHG5 (11737974_s_at) / RFU LRRC4B (11730491_at) / Fold change /veh LRRC4B (11730491_at) / RFU GIMAP4 (11747438_a_at) / Fold change /veh GIMAP4 (11747438_a_at) / RFU KRT8 (11758183_x_at) / Fold change /veh KRT8 (11758183_x_at) / RFU CNN1 (11734310_a_at) / Fold change /veh CNN1 (11734310_a_at) / RFU VPS37D (11726825_at) / Fold change /veh VPS37D (11726825_at) / RFU C10orf10 (11716522_x_at) / Fold change /veh C10orf10 (11716522_x_at) / RFU KIR2DL2 /// KIR2DL4 /// KIR2DL5A /// KIR2DL5B /// KIR2DS1 /// KIR2DS2 /// KIR2DS3 /// KIR2DS4 /// KIR3DL3 /// KIR3DL3 /// KIR3DS1 (11738374_at) / Fold change /veh KIR2DL2 /// KIR2DL4 /// KIR2DL5A /// KIR2DL5B /// KIR2DS1 /// KIR2DS2 /// KIR2DS3 /// KIR2DS4 /// KIR3DL3 /// KIR3DL3 /// KIR3DS1 (11738374_at) / RFU C1QL1 (11718748_at) / Fold change /veh C1QL1 (11718748_at) / RFU TMPRSS4 (11747572_a_at) / Fold change /veh TMPRSS4 (11747572_a_at) / RFU HAMP (11756126_x_at) / Fold change /veh HAMP (11756126_x_at) / RFU RNFT2 (11725882_a_at) / Fold change /veh RNFT2 (11725882_a_at) / RFU NR4A2 (11747474_a_at) / Fold change /veh NR4A2 (11747474_a_at) / RFU ABCC12 (11746883_a_at) / Fold change /veh ABCC12 (11746883_a_at) / RFU TMEM136 (11760407_x_at) / Fold change /veh TMEM136 (11760407_x_at) / RFU CLDN22 /// WWC2 (11732394_at) / Fold change /veh CLDN22 /// WWC2 (11732394_at) / RFU HLA-DPB1 (11760878_x_at) / Fold change /veh HLA-DPB1 (11760878_x_at) / RFU SPINT1 (11716480_a_at) / Fold change /veh SPINT1 (11716480_a_at) / RFU GAP43 (11754022_s_at) / Fold change /veh GAP43 (11754022_s_at) / RFU A4GNT (11735810_at) / Fold change /veh A4GNT (11735810_at) / RFU PRB3 (11715151_x_at) / Fold change /veh PRB3 (11715151_x_at) / RFU TUBB4B (11761932_at) / Fold change /veh TUBB4B (11761932_at) / RFU CAPN14 (11732068_a_at) / Fold change /veh CAPN14 (11732068_a_at) / RFU TMCC2 (11721928_a_at) / Fold change /veh TMCC2 (11721928_a_at) / RFU IRGQ (11745062_a_at) / Fold change /veh IRGQ (11745062_a_at) / RFU FAM174B (11720279_a_at) / Fold change /veh FAM174B (11720279_a_at) / RFU TMPRSS4 (11748680_a_at) / Fold change /veh TMPRSS4 (11748680_a_at) / RFU FAM212B (11763350_a_at) / Fold change /veh FAM212B (11763350_a_at) / RFU PLEKHG5 (11743358_a_at) / Fold change /veh PLEKHG5 (11743358_a_at) / RFU ZSCAN30 (11745921_a_at) / Fold change /veh ZSCAN30 (11745921_a_at) / RFU CMKLR1 (11741424_a_at) / Fold change /veh CMKLR1 (11741424_a_at) / RFU LOC101060620 /// MAPK8IP1 (11723275_at) / Fold change /veh LOC101060620 /// MAPK8IP1 (11723275_at) / RFU SPTSSB (11747773_x_at) / Fold change /veh SPTSSB (11747773_x_at) / RFU PRSS12 (11739890_at) / Fold change /veh PRSS12 (11739890_at) / RFU BIN1 (11741810_x_at) / Fold change /veh BIN1 (11741810_x_at) / RFU WNT11 (11732464_a_at) / Fold change /veh WNT11 (11732464_a_at) / RFU C10orf10 (11716521_a_at) / Fold change /veh C10orf10 (11716521_a_at) / RFU C5orf56 (11738089_at) / Fold change /veh C5orf56 (11738089_at) / RFU CYB561 (11721691_x_at) / Fold change /veh CYB561 (11721691_x_at) / RFU ANKRD19P (11752326_a_at) / Fold change /veh ANKRD19P (11752326_a_at) / RFU OR2T12 /// OR2T33 /// OR2T8 (11738714_s_at) / Fold change /veh OR2T12 /// OR2T33 /// OR2T8 (11738714_s_at) / RFU VCAN (11748164_a_at) / Fold change /veh VCAN (11748164_a_at) / RFU JSRP1 (11732532_at) / Fold change /veh JSRP1 (11732532_at) / RFU KRTAP10-11 (11738290_x_at) / Fold change /veh KRTAP10-11 (11738290_x_at) / RFU MYO3A (11730013_a_at) / Fold change /veh MYO3A (11730013_a_at) / RFU EBF3 (11725865_a_at) / Fold change /veh EBF3 (11725865_a_at) / RFU CAMK2N1 (11719241_x_at) / Fold change /veh CAMK2N1 (11719241_x_at) / RFU C5orf56 (11738088_a_at) / Fold change /veh C5orf56 (11738088_a_at) / RFU OLFML3 (11715873_a_at) / Fold change /veh OLFML3 (11715873_a_at) / RFU LOC100653217 /// NTM (11731650_a_at) / Fold change /veh LOC100653217 /// NTM (11731650_a_at) / RFU MAPK11 (11762145_a_at) / Fold change /veh MAPK11 (11762145_a_at) / RFU FIZ1 (11724087_x_at) / Fold change /veh FIZ1 (11724087_x_at) / RFU OASL (11726364_x_at) / Fold change /veh OASL (11726364_x_at) / RFU SOX15 (11748057_x_at) / Fold change /veh SOX15 (11748057_x_at) / RFU CD79A (11719716_a_at) / Fold change /veh CD79A (11719716_a_at) / RFU HIST1H1D (11736915_at) / Fold change /veh HIST1H1D (11736915_at) / RFU CASKIN2 (11723855_a_at) / Fold change /veh CASKIN2 (11723855_a_at) / RFU LOC730098 (11760151_x_at) / Fold change /veh LOC730098 (11760151_x_at) / RFU OR4N2 (11742367_at) / Fold change /veh OR4N2 (11742367_at) / RFU PRRT2 (11749266_a_at) / Fold change /veh PRRT2 (11749266_a_at) / RFU SNX32 (11753110_a_at) / Fold change /veh SNX32 (11753110_a_at) / RFU CDHR5 (11726645_a_at) / Fold change /veh CDHR5 (11726645_a_at) / RFU RCAN1 (11760418_a_at) / Fold change /veh RCAN1 (11760418_a_at) / RFU FAM167A (11723789_a_at) / Fold change /veh FAM167A (11723789_a_at) / RFU FAM26E (11764081_at) / Fold change /veh FAM26E (11764081_at) / RFU ISYNA1 (11749810_s_at) / Fold change /veh ISYNA1 (11749810_s_at) / RFU ACY1 (11761880_at) / Fold change /veh ACY1 (11761880_at) / RFU 11764098_at / Fold change /veh 11764098_at / RFU SAMD14 (11745864_x_at) / Fold change /veh SAMD14 (11745864_x_at) / RFU NPB (11741838_a_at) / Fold change /veh NPB (11741838_a_at) / RFU TMPRSS6 (11731388_a_at) / Fold change /veh TMPRSS6 (11731388_a_at) / RFU KRTAP10-2 (11738614_at) / Fold change /veh KRTAP10-2 (11738614_at) / RFU ARHGAP8 /// PRR5-ARHGAP8 (11727945_x_at) / Fold change /veh ARHGAP8 /// PRR5-ARHGAP8 (11727945_x_at) / RFU KRTAP5-7 /// NADSYN1 (11734609_at) / Fold change /veh KRTAP5-7 /// NADSYN1 (11734609_at) / RFU RASL12 (11751679_a_at) / Fold change /veh RASL12 (11751679_a_at) / RFU CDKN2B (11736163_a_at) / Fold change /veh CDKN2B (11736163_a_at) / RFU PRF1 (11729649_at) / Fold change /veh PRF1 (11729649_at) / RFU, ZNF638 /// ZNF638-IT1 / Fold change vs veh, ZNF638 /// ZNF638-IT1 / RFU, PANK3 / Fold change vs veh, PANK3 / RFU, SH3YL1 / Fold change vs veh, SH3YL1 / RFU, ZEB2 / Fold change vs veh, ZEB2 / RFU, NRIP1 / Fold change vs veh, NRIP1 / RFU, PTTG1IP / Fold change vs veh, PTTG1IP / RFU, CAPN2 / Fold change vs veh, CAPN2 / RFU, MED14 / Fold change vs veh, MED14 / RFU, SNORA58 / Fold change vs veh, SNORA58 / RFU, C1orf63 / Fold change vs veh, C1orf63 / RFU, LRRFIP1 / Fold change vs veh, LRRFIP1 / RFU, NDUFAF7 / Fold change vs veh, NDUFAF7 / RFU, SLC12A2 / Fold change vs veh, SLC12A2 / RFU, IBTK / Fold change vs veh, IBTK / RFU, ESF1 / Fold change vs veh, ESF1 / Fold change vs veh, TMEM50B / RFU, TAOK1 / Fold change vs veh, TAOK1 / RFU, ACBD3 / Fold change vs veh, ACBD3 / RFU, TMA16 / Fold change vs veh, TMA16 / RFU, RWDD3 / Fold change vs veh, RWDD3 / RFU, BCAT1 / Fold change vs veh, BCAT1 / RFU, EDEM3 / Fold change vs veh, EDEM3 / RFU, TMEM33 / Fold change vs veh, TMEM33 / RFU, WDR75 / Fold change vs veh, WDR75 / RFU, AHCTF1 / Fold change vs veh, AHCTF1 / RFU, TFRC / Fold change vs veh, TFRC / RFU, ZDHHC17 / Fold change vs veh, ZDHHC17 / RFU, NOM1 / Fold change vs veh, NOM1 / RFU, ARL8B / Fold change vs veh, ARL8B / RFU, ZBTB11 / Fold change vs veh, ZBTB11 / RFU, TAMM41 / Fold change vs veh, TAMM41 / RFU, KIAA1704 /// LOC100996395 / Fold change vs veh, KIAA1704 /// LOC100996395 / RFU, ING1 / Fold change vs veh, ING1 / RFU, TRMT61B / Fold change vs veh, TRMT61B / RFU, FUBP3 / Fold change vs veh, FUBP3 / RFU, TP53 / Fold change vs veh, TP53 / RFU, TNKS2 / Fold change vs veh, TNKS2 / RFU, ZFP14 / Fold change vs veh, ZFP14 / RFU, ACTR2 / Fold change vs veh, ACTR2 / RFU, PPP3R1 / Fold change vs veh, PPP3R1 / RFU, PIK3R1 / Fold change vs veh, PIK3R1 / RFU, HNRNPA1 / Fold change vs veh, HNRNPA1 / RFU, RNF170 / Fold change vs veh, RNF170 / RFU, ZNF28 / Fold change vs veh, ZNF28 / RFU, RNGTT / Fold change vs veh, RNGTT / RFU, OGT / Fold change vs veh, OGT / RFU, BRD1 / Fold change vs veh, BRD1 / RFU, MARS / Fold change vs veh, MARS / RFU, ZNF655 / Fold change vs veh, ZNF655 / RFU, FAHD1 / Fold change vs veh, FAHD1 / RFU, BDP1 / Fold change vs veh, BDP1 / RFU, LRRCC1 / Fold change vs veh, LRRCC1 / RFU, ARID1A / Fold change vs veh, ARID1A / RFU, ZNF146 / Fold change vs veh, ZNF146 / RFU, ZNF330 / Fold change vs veh, ZNF330 / RFU, GPN3 / Fold change vs veh, GPN3 / RFU, C9orf123 / Fold change vs veh, C9orf123 / RFU, N4BP2L2 / Fold change vs veh, N4BP2L2 / RFU, ARFIP1 / Fold change vs veh, ARFIP1 / RFU, FAM179B / Fold change vs veh, FAM179B / RFU, BCL10 / Fold change vs veh, BCL10 / RFU, UHRF1BP1L / Fold change vs veh, UHRF1BP1L / RFU, BET1 / Fold change vs veh, BET1 / RFU, CNOT2 / Fold change vs veh, CNOT2 / RFU, ZNF268 / Fold change vs veh, ZNF268 / Fold change vs veh, ZNF507 / RFU, DGCR2 / Fold change vs veh, DGCR2 / RFU, WDSUB1 / Fold change vs veh, WDSUB1 / Fold change vs veh, HSP90B1 /// MIR3652 / RFU, ADSS / Fold change vs veh, ADSS / RFU, GK / Fold change vs veh, GK / RFU, ZNF148 / Fold change vs veh, ZNF148 / RFU, TAF9 / Fold change vs veh, TAF9 / RFU, SLC1A5 / Fold change vs veh, SLC1A5 / RFU, SLMO2 / Fold change vs veh, SLMO2 / RFU, ABCC4 / Fold change vs veh, ABCC4 / RFU, LOC101060439 /// RAP1B / Fold change vs veh, LOC101060439 /// RAP1B / RFU, RFX7 / Fold change vs veh, RFX7 / RFU, GTPBP10 / Fold change vs veh, GTPBP10 / RFU, CNEP1R1 / Fold change vs veh, CNEP1R1 / RFU, BIVM-ERCC5 /// ERCC5 / Fold change vs veh, BIVM-ERCC5 /// ERCC5 / RFU, ILF3 / Fold change vs veh, ILF3 / RFU 11762660_at / Fold change /veh 11762660_at / RFU VCAN (11757783_s_at) / Fold change /veh VCAN (11757783_s_at) / RFU DDX43 (11728927_at) / Fold change /veh DDX43 (11728927_at) / RFU KRT8 (11758188_x_at) / Fold change /veh KRT8 (11758188_x_at) / RFU NKD1 (11759106_at) / Fold change /veh NKD1 (11759106_at) / RFU SRD5A1 (11742802_a_at) / Fold change /veh SRD5A1 (11742802_a_at) / RFU TPSAB1 /// TPSB2 (11721975_s_at) / Fold change /veh TPSAB1 /// TPSB2 (11721975_s_at) / RFU GSTM3 (11746129_a_at) / Fold change /veh GSTM3 (11746129_a_at) / RFU IL23R (11737362_x_at) / Fold change /veh IL23R (11737362_x_at) / RFU TMEM51 (11727254_a_at) / Fold change /veh TMEM51 (11727254_a_at) / RFU PIWIL2 (11732686_x_at) / Fold change /veh PIWIL2 (11732686_x_at) / RFU ORM1 (11744905_x_at) / Fold change /veh ORM1 (11744905_x_at) / RFU CCDC152 (11743942_at) / Fold change /veh CCDC152 (11743942_at) / RFU ECM1 (11717891_a_at) / Fold change /veh ECM1 (11717891_a_at) / RFU IL23R (11748794_a_at) / Fold change /veh IL23R (11748794_a_at) / RFU TNFAIP8L3 (11732012_x_at) / Fold change /veh TNFAIP8L3 (11732012_x_at) / RFU MBOAT4 (11741988_at) / Fold change /veh MBOAT4 (11741988_at) / RFU 11764193_at / Fold change /veh 11764193_at / RFU TMEM53 (11763286_at) / Fold change /veh TMEM53 (11763286_at) / RFU MAGEB2 (11727129_at) / Fold change /veh MAGEB2 (11727129_at) / RFU TMEM200A (11744735_a_at) / Fold change /veh TMEM200A (11744735_a_at) / RFU CCDC152 (11751479_a_at) / Fold change /veh CCDC152 (11751479_a_at) / RFU FAM211A (11726209_a_at) / Fold change /veh FAM211A (11726209_a_at) / RFU RGS16 (11746705_a_at) / Fold change /veh RGS16 (11746705_a_at) / RFU VCAN (11755009_s_at) / Fold change /veh VCAN (11755009_s_at) / RFU RHOB (11743442_s_at) / Fold change /veh RHOB (11743442_s_at) / RFU RGS16 (11720943_a_at) / Fold change /veh RGS16 (11720943_a_at) / RFU RGS16 (11720944_at) / Fold change /veh RGS16 (11720944_at) / RFU, VPS4B / Fold change vs veh, VPS4B / RFU, CREB1 / Fold change vs veh, CREB1 / RFU, DNAJC13 / Fold change vs veh, DNAJC13 / RFU, GNAQ / Fold change vs veh, GNAQ / RFU, CDK5R1 / Fold change vs veh, CDK5R1 / RFU, ZRANB3 / Fold change vs veh, ZRANB3 / RFU, CUL4A / Fold change vs veh, CUL4A / RFU, CCNY / Fold change vs veh, CCNY / RFU, UFL1 / Fold change vs veh, UFL1 / RFU, COG3 / Fold change vs veh, COG3 / RFU, DIAPH2 / Fold change vs veh, DIAPH2 / RFU, SKA2 / Fold change vs veh, SKA2 / RFU, AFF3 / Fold change vs veh, AFF3 / RFU, LMF1 / Fold change vs veh, LMF1 / RFU, IPO11 / Fold change vs veh, IPO11 / RFU, DFFB / Fold change vs veh, DFFB / RFU, FOXP1 / Fold change vs veh, FOXP1 / RFU, CARD8 / Fold change vs veh, CARD8 / RFU, STRN3 / Fold change vs veh, STRN3 / RFU, ADK / Fold change vs veh, ADK / RFU, RASSF2 / Fold change vs veh, RASSF2 / RFU, WIPF1 / Fold change vs veh, WIPF1 / RFU, LARP1B / Fold change vs veh, LARP1B / RFU, RASA1 / Fold change vs veh, RASA1 / RFU, RB1 / Fold change vs veh, RB1 / RFU, PPFIA1 / Fold change vs veh, PPFIA1 / RFU, MAT2A / Fold change vs veh, MAT2A / RFU, CCT5 / Fold change vs veh, CCT5 / RFU, WDR92 / Fold change vs veh, WDR92 / RFU, CUX1 / Fold change vs veh, CUX1 / RFU, TTC7A / Fold change vs veh, TTC7A / RFU, TMEM135 / Fold change vs veh, TMEM135 / RFU, DEPTOR / Fold change vs veh, DEPTOR / RFU, CPM / Fold change vs veh, CPM / RFU, DNAJB6 / Fold change vs veh, DNAJB6 / RFU, CACNA2D3 / Fold change vs veh, CACNA2D3 / RFU, DTX4 / Fold change vs veh, DTX4 / RFU, TFCP2 / Fold change vs veh, TFCP2 / RFU, GMCL1 /// GMCL1P1 / Fold change vs veh, GMCL1 /// GMCL1P1 / RFU, AEBP2 / Fold change vs veh, AEBP2 / RFU, SNHG1 /// SNORD22 /// SNORD25 /// SNORD26 /// SNORD27 /// SNORD28 /// SNORD29 /// SNORD31 / Fold change vs veh, SNHG1 /// SNORD22 /// SNORD25 /// SNORD26 /// SNORD27 /// SNORD28 /// SNORD29 /// SNORD31 / Fold change (Aza/veh), C12orf56 (ProbeSet 11735607_a_at) / Fold change (ACY-1035/veh), C12orf56 (ProbeSet 11735607_a_at) / Fold change (Aza/veh), FGFR1OP (ProbeSet 11751329_s_at) / Fold change (ACY-1035/veh), FGFR1OP (ProbeSet 11751329_s_at) / Fold change (Aza/veh), VPS36 (ProbeSet 11739960_a_at) / Fold change (ACY-1035/veh), VPS36 (ProbeSet 11739960_a_at) / RFU SYPL1 (11715823_x_at) / Fold change /veh SYPL1 (11715823_x_at) / RFU IGFBP7 (11715501_s_at) / Fold change /veh IGFBP7 (11715501_s_at) / RFU REEP3 (11722064_at) / Fold change /veh REEP3 (11722064_at) / RFU IGLL1 (11728026_x_at) / Fold change /veh IGLL1 (11728026_x_at): dose or concentration left out as unconfirmed
Settings: MV-4-11 cells, 48 hours

Question: How did the “RFU CCDC152 (11751479_a_at)” value turn out when `Nc1ccc(-c2cccs2)cc1NC(=O)c1ccc2c(c1)cc(C1CC1)n2CCN1CCOCC1` [ACY-1035] was run?
Answer: 4.13 RFU
